Results as given in PubChem BioAssay AID328 (DTP/NCI, 2004).
Several values for one entry are separate records, joined by “and”; a condition that tells them apart may be missing. Equal entries are not always repeated. Inconclusive results and toxic doses are left out. Residues, ends and D or L forms follow the SMILES beside them.

Tested on: BDF1 mice, P388 leukemia ip, median survival T/C
Assay: NCI In Vivo Anticancer Drug Screen. Data for tumor model P388 Leukemia (intraperitoneal) in B6D2F1 (BDF1) mice
Conditions: endpoint: median survival time, higher = longer survival
Outline: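 Compound-treated tumour-bearing mice were compared with vehicle-treated controls. Survival was recorded, and the value is the treated-group measurement divided by the control-group measurement (T/C).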

[1] = dose: 50.0 mg/kg/injection, schedule: Q01DX009 (ip), vehicle: saline with Tween-80
[2] = dose: 200.0 mg/kg/injection, schedule: Q01DX009 (ip), vehicle: saline with Tween-80
[3] = dose: 400.0 mg/kg/injection, schedule: Q04DX003 (ip), vehicle: saline with Tween-80
[4] = dose: 25.0 mg/kg/injection, schedule: Q01DX009 (ip), vehicle: saline with Tween-80
[5] = dose: 100.0 mg/kg/injection, schedule: Q01DX009 (ip), vehicle: saline with Tween-80
[6] = dose: 50.0 mg/kg/injection, schedule: Q01DX009 (ip), vehicle: saline
[7] = dose: 100.0 mg/kg/injection, schedule: Q01DX009 (ip), vehicle: saline
[8] = dose: 200.0 mg/kg/injection, schedule: Q04DX003 (ip), vehicle: Klucel (hydroxypropylcellulose) (HPC)
[9] = dose: 50.0 mg/kg/injection, schedule: Q01DX005 (ip), vehicle: saline with Tween-80
[10] = dose: 100.0 mg/kg/injection, schedule: Q01DX005 (ip), vehicle: saline with Tween-80
[11] = dose: 200.0 mg/kg/injection, schedule: Q01DX005 (ip), vehicle: saline with Tween-80
[12] = dose: 1.56 mg/kg/injection, schedule: Q01DX009 (ip), vehicle: water
[13] = dose: 50.0 mg/kg/injection, schedule: Q01DX009 (ip), vehicle: other
[14] = dose: 100.0 mg/kg/injection, schedule: Q01DX009 (ip), vehicle: other
[15] = dose: 200.0 mg/kg/injection, schedule: Q01DX009 (ip), vehicle: other
[16] = dose: 50.0 mg/kg/injection, schedule: Q01DX005 (ip), vehicle: saline
[17] = dose: 100.0 mg/kg/injection, schedule: Q01DX005 (ip), vehicle: saline
[18] = dose: 200.0 mg/kg/injection, schedule: Q01DX005 (ip), vehicle: saline
[19] = dose: 37.5 mg/kg/injection, schedule: Q01DX009 (ip), vehicle: saline with Tween-80
[20] = dose: 100.0 mg/kg/injection, schedule: Q04DX003 (ip), vehicle: saline with Tween-80

COc1cc2cc3c4ccccc4cc[n+]3c(C)c2cc1OC (tested in a mixture with another compound)
T/C (dose: 5.0 mg/kg/injection, schedule: Q04DX003 (ip), vehicle: saline): 101 % of control
T/C (dose: 20.0 mg/kg/injection, schedule: Q01DX009 (ip), vehicle: saline): 109 % of control
T/C (dose: 40.0 mg/kg/injection, schedule: Q01DX009 (ip), vehicle: saline): 104 % of control
T/C (dose: 80.0 mg/kg/injection, schedule: Q04DX003 (ip), vehicle: saline): 109 % of control

O=C1C(N2CCOCC2)=C(N2CC2)C(=O)C(N2CCOCC2)=C1N1CC1
T/C (dose: 1.5 mg/kg/injection, schedule: Q01DX009 (ip), vehicle: saline): 105 % of control
T/C (dose: 3.0 mg/kg/injection, schedule: Q01DX009 (ip), vehicle: saline): 94 % of control
T/C (dose: 6.0 mg/kg/injection, schedule: Q01DX009 (ip), vehicle: saline): 94 % of control

O=Cc1ccc(C(Cl)(Cl)Cl)cc1
T/C [1]: 92 % of control
T/C [2]: 122 % of control
T/C [3]: 163 % of control

CC1=CC23C(COC(=O)C24CO4)C(C(=O)O)=CC3C1C (stereo unspecified) (tested in a mixture with another compound)
T/C (dose: 0.06 mg/kg/injection, schedule: Q01DX009 (ip), vehicle: Klucel (hydroxypropylcellulose) (HPC)): 105 % of control
T/C (dose: 0.13 mg/kg/injection, schedule: Q01DX009 (ip), vehicle: Klucel (hydroxypropylcellulose) (HPC)): 100 % of control
T/C (dose: 0.25 mg/kg/injection, schedule: Q01DX009 (ip), vehicle: Klucel (hydroxypropylcellulose) (HPC)): 105 % of control and 116 % of control

O=C(Nc1ccc(NC(=O)c2ccccc2)c(Sc2ccccc2)c1Sc1ccccc1)c1ccccc1
T/C (dose: 100.0 mg/kg/injection, schedule: Q01DX001 (ip), vehicle: saline with Tween-80): 90 % of control
T/C (dose: 400.0 mg/kg/injection, schedule: Q01DX001 (ip), vehicle: saline with Tween-80): 100 % of control

CNCCCC12CC(c3ccccc31)c1ccccc12
T/C [4]: 103 % of control
T/C [1]: 101 % of control
T/C [5]: 112 % of control

FC(F)(F)c1nc2nccnc2[nH]1
T/C [6]: 100 % of control
T/C [7]: 100 % of control
T/C (dose: 200.0 mg/kg/injection, schedule: Q01DX009 (ip), vehicle: saline): 108 % of control
T/C [8]: 88 % of control

CC(C)(C)OC(=O)NCC(=O)NC(Cc1c[nH]c2ccccc12)C(=O)O (stereo unspecified)
T/C [9]: 102 % of control
T/C [10]: 95 % of control
T/C [11]: 95 % of control

COc1cccc2c1C(=O)c1c(O)c3c(c(O)c1C2=O)C[C@@](O)(C(=O)O)C[C@@H]3OC1CC(N)C(O)C(C)O1 (stereo partly specified)
T/C [12]: 100 % of control
T/C (dose: 3.12 mg/kg/injection, schedule: Q01DX009 (ip), vehicle: water): 107 % of control and 109 % of control
T/C (dose: 6.25 mg/kg/injection, schedule: Q01DX009 (ip), vehicle: water): 93 % of control

CCOC(=O)C(=CN(C)c1ccc([N+](=O)[O-])cc1)C(=O)OCC
T/C [13]: 100 % of control
T/C [14]: 103 % of control
T/C [15]: 109 % of control

NC(=O)C(Cc1ccc(O)cc1)NC(=O)C(N)Cc1c[nH]c2ccccc12 (stereo not drawn) (H-Trp-Tyr-NH2; configuration not given here)
T/C [16]: 92 % of control
T/C [17]: 92 % of control
T/C [18]: 87 % of control

OC1CCC(O)C1(Cl)Cl (stereo unspecified)
T/C (dose: 25.0 mg/kg/injection, schedule: Q01DX009 (ip), vehicle: saline): 109 % of control
T/C [6]: 108 % of control
T/C [7]: 98 % of control

c1ccc(Oc2c3ccccc3nc3ccccc23)cc1
T/C [9]: 123 % of control

Clc1ccc(CSc2ncnc3nc[nH]c23)cc1
T/C [5]: 100 % of control
T/C [2]: 104 % of control

CC(C)=CCC/C(C)=C\CCl
T/C [4]: 105 % of control
T/C [19]: 99 % of control
T/C [1]: 121 % of control
T/C (dose: 50.0 mg/kg/injection, schedule: Q04DX003 (ip), vehicle: saline with Tween-80): 107 % of control
T/C (dose: 75.0 mg/kg/injection, schedule: Q01DX009 (ip), vehicle: saline with Tween-80): 122 % of control
T/C [5]: 105 % of control
T/C [20]: 111 % of control

CC1(C)C=C(C(Br)c2cccc(Br)c2)C(=O)c2ccccc21 (stereo unspecified)
T/C (dose: 100.0 mg/kg/injection, schedule: Q01DX009 (ip), vehicle: Klucel (hydroxypropylcellulose) (HPC)): 120 % of control
T/C (dose: 100.0 mg/kg/injection, schedule: Q04DX003 (ip), vehicle: Klucel (hydroxypropylcellulose) (HPC)): 90 % of control
T/C (dose: 200.0 mg/kg/injection, schedule: Q01DX009 (ip), vehicle: Klucel (hydroxypropylcellulose) (HPC)): 110 % of control
T/C [8]: 95 % of control
T/C (dose: 400.0 mg/kg/injection, schedule: Q01DX009 (ip), vehicle: Klucel (hydroxypropylcellulose) (HPC)): 110 % of control
T/C (dose: 400.0 mg/kg/injection, schedule: Q04DX003 (ip), vehicle: Klucel (hydroxypropylcellulose) (HPC)): 109 % of control

Cc1c2cnccc2c(C)c2c1c1ccccc1n2CC1CO1 (stereo unspecified)
T/C (dose: 9.37 mg/kg/injection, schedule: Q01DX009 (ip), vehicle: Klucel (hydroxypropylcellulose) (HPC)): 150 % of control
T/C (dose: 11.0 mg/kg/injection, schedule: Q01DX009 (ip), vehicle: saline with Tween-80): 168 % of control
T/C (dose: 16.5 mg/kg/injection, schedule: Q01DX009 (ip), vehicle: saline with Tween-80): 176 % of control
T/C [4]: 106 % of control
T/C [19]: 95 % of control

CS(=O)(=O)n1c(CBr)nc2ccccc21
T/C (dose: 25.0 mg/kg/injection, schedule: Q04DX003 (ip), vehicle: saline sonified): 109 % of control
T/C (dose: 50.0 mg/kg/injection, schedule: Q04DX003 (ip), vehicle: saline sonified): 118 % of control
T/C (dose: 100.0 mg/kg/injection, schedule: Q04DX003 (ip), vehicle: saline sonified): 122 % of control

CCCCOCN(COCCCC)c1cccc(Cl)c1
T/C [1]: 100 % of control
T/C [5]: 106 % of control
T/C [2]: 117 % of control

COc1ccc(/C=C2\CCCC3=C2N=C2SCC(=O)N2C3c2ccc(OC)cc2)cc1 (stereo unspecified)
T/C [20]: 90 % of control
T/C [3]: 90 % of control

N=Cc1c(O)n(-c2ccccc2)c(=O)[nH]c1=O
T/C [5]: 112 % of control
T/C [2]: 100 % of control
T/C (dose: 400.0 mg/kg/injection, schedule: Q01DX009 (ip), vehicle: saline with Tween-80): 104 % of control

CC(=O)C(Cl)C(C)=O.CC(=O)C(Cl)C(C)=O.CO.CO.[Ni]
T/C (dose: 12.0 mg/kg/injection, schedule: Q01DX001 (ip), vehicle: Klucel (hydroxypropylcellulose) (HPC)): 108 % of control
T/C (dose: 25.0 mg/kg/injection, schedule: Q01DX001 (ip), vehicle: Klucel (hydroxypropylcellulose) (HPC)): 95 % of control
T/C (dose: 50.0 mg/kg/injection, schedule: Q01DX001 (ip), vehicle: Klucel (hydroxypropylcellulose) (HPC)): 112 % of control
T/C (dose: 100.0 mg/kg/injection, schedule: Q01DX001 (ip), vehicle: Klucel (hydroxypropylcellulose) (HPC)): 104 % of control
T/C (dose: 400.0 mg/kg/injection, schedule: Q01DX001 (ip), vehicle: Klucel (hydroxypropylcellulose) (HPC)): 118 % of control

CS(=O)c1ncc2cnccn12 (stereo unspecified)
T/C (dose: 25.0 mg/kg/injection, schedule: Q04DX003 (ip), vehicle: water): 108 % of control
T/C (dose: 50.0 mg/kg/injection, schedule: Q04DX003 (ip), vehicle: water): 100 % of control
T/C (dose: 100.0 mg/kg/injection, schedule: Q01DX009 (ip), vehicle: water): 104 % of control
T/C (dose: 100.0 mg/kg/injection, schedule: Q04DX003 (ip), vehicle: water): 108 % of control
T/C (dose: 200.0 mg/kg/injection, schedule: Q01DX009 (ip), vehicle: water): 106 % of control

CC(=O)OC1CC2CCCCC21 (stereo unspecified)
T/C [13]: 116 % of control
T/C [14]: 105 % of control
T/C [15]: 100 % of control

CNC(=S)NNC(=O)C1CC1
T/C [16]: 94 % of control
T/C [17]: 107 % of control
T/C [18]: 94 % of control

CCOC(=O)CCN(CC1CC=CCC1)c1cc(O)c2c(c1O)C(=O)c1ccccc1C2=O (stereo unspecified)
T/C [9]: 94 % of control
T/C [10]: 89 % of control
T/C [11]: 90 % of control

O=C1c2c(O)ccc(O)c2C(=O)c2c(NCCNCCO)ccc(NCCNCCO)c21
T/C (dose: 0.78 mg/kg/injection, schedule: Q01DX009 (ip), vehicle: water): 270 % of control
T/C [12]: 181 % of control
T/C (dose: 3.13 mg/kg/injection, schedule: Q01DX009 (ip), vehicle: water): 90 % of control
